Laboratory results reported in ChEMBL document CHEMBL4152208, “Synthesis and structure-activity relationships of quinolinone and quinoline-based P2X7 receptor antagonists and their anti-sphere formation activities in glioblastoma cells” (Eur J Med Chem, 2018).
pIC50: −log10 of the molar value. Activity calls are given as the source filed them. The rule behind the calls is not given here.

Tests used:
Type in all cases: cell-based
P2X purinoceptor 7 [1] = target: T1, P2X purinoceptor 7 (Homo sapiens, UniProt Q99572); assay: Antagonist activity at human P2X7 receptor expressed in HEK293 cells assessed as inhibition of BzATP-induced EtBr uptake after 2 hrs by fluorescence assay relative to control
T1 sequence (Q99572 whole entry): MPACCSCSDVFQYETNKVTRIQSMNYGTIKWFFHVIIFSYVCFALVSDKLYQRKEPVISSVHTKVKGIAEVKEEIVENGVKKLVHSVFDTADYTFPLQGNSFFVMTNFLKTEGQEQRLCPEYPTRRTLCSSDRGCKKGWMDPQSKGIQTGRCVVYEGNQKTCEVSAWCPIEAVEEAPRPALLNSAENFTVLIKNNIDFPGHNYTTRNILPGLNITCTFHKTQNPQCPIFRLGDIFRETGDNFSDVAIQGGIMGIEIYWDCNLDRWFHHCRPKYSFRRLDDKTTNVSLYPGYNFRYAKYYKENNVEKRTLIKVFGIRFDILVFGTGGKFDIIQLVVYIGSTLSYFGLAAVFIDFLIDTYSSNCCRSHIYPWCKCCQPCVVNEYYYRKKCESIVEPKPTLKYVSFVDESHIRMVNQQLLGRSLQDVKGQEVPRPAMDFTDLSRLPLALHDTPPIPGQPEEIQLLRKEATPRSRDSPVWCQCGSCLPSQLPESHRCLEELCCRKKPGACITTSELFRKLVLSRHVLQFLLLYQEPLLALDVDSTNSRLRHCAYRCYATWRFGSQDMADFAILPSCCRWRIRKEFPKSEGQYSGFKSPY

[2] = target: T2, P2X purinoceptor 7 (Homo sapiens) (UniProt Q99572); assay: Antagonist activity at human P2X7 receptor expressed in HEK293 cells assessed as inhibition of BzATP-induced EtBr uptake at 1 uM after 2 hrs by fluorescence assay relative to control
T2 sequence (whole entry): T1 sequence (Q99572 whole entry)

[3] = target: T2, P2X purinoceptor 7 (Homo sapiens); assay: Antagonist activity at human P2X7 receptor expressed in HEK293 cells assessed as inhibition of BzATP-induced EtBr uptake at 10 uM after 2 hrs by fluorescence assay relative to control
[4] = Cytotoxicity against HEK293 cells expressing human P2X7 receptor assessed as cell survival at 10 uM by MTT assay relative to control; conditions: read-out: Survival
P2X purinoceptor 7 [5] = target: T1, P2X purinoceptor 7; assay: Antagonist activity at P2X7 in LPS/IFN gamma differentiated human THP-1 cells assessed as inhibition of BzATP-induced IL-1beta release preincubated for 30 mins followed by BzATP stimulation for 30 mins by ELISA
[6] = target: T2, P2X purinoceptor 7 (Homo sapiens); assay: Antagonist activity at P2X7 in LPS/IFN gamma differentiated human THP-1 cells assessed as inhibition of BzATP-induced IL-1beta release at 10 uM preincubated for 30 mins followed by BzATP stimulation for 30 mins by ELISA

Structure (SMILES) | inhibition [2] | inhibition [3] | other results
COC(=O)c1cc2c(NC(=O)C3CCCCC3)cccc2n(Cc2ccc(OC)cc2)c1=O | 67% | 88% | pIC50 (P2X purinoceptor 7 [1]): 6.09
COc1ccc(Cn2c(=O)c(C(=O)NCCc3ccc(Cl)cc3)cc3c(NC(=O)Cc4ccccc4)cccc32)cc1 |  | inactive | 
COC(=O)c1cc2c(NC(=O)CC34CC5CC(CC(C5)C3)C4)cccc2nc1Cl | 27% | 43% | 
COc1ccc(CC(=O)Nc2cccc3c2cc(C(=O)NCCc2ccc(C)cc2)c(=O)n3Cc2ccc(OC)cc2)cc1 |  | inactive | 
CCCC(=O)Nc1cccc2c1cc(C(=O)NCCc1ccc(OC)cc1)c(=O)n2Cc1ccc(OC)cc1 |  | inactive | 
COC(=O)c1cc2c(NC(=O)CC34CC5CC(CC(C5)C3)C4)cccc2n(Cc2ccc(OC)cc2)c1=O | 65% | 76% | pIC50 (P2X purinoceptor 7 [1]): 6.06
COc1ccc(Cn2c(=O)c(C(=O)NCCCc3ccccc3)cc3c(NC(=O)Cc4ccc(Cl)cc4)cccc32)cc1 |  | inactive | 
O=C(CC12CC3CC(CC(C3)C1)C2)Nc1cccc2nc(-c3cccc(O)c3)ccc12 | 36% | 66% | 
COc1ccc(Cn2c(=O)c(C(=O)NCCCc3ccccc3)cc3c(NC(=O)CCc4ccccc4)cccc32)cc1 |  | inactive | 
COc1ccc(CC(=O)Nc2cccc3c2cc(C(=O)NCCc2ccccc2)c(=O)n3Cc2ccc(OC)cc2)cc1 |  | 8% | 
COc1ccc(Cn2c(=O)c(C(=O)O)cc3c(NC(=O)C45CC6CC(CC(C6)C4)C5)cccc32)cc1 | 2% | 41% | 
COC(=O)c1cc2c(NC(=O)C34CC5CC(CC(C5)C3)C4)cccc2n(Cc2ccc(C)cc2)c1=O | 30% | 45% | 
O=C(CC12CC3CC(CC(C3)C1)C2)Nc1cccc2nc(-c3ccc([N+](=O)[O-])cc3)ccc12 | 79% | 94% | pIC50 (P2X purinoceptor 7 [1]): 7.14; viability at 10 µM [4]: 93%; pIC50 (P2X purinoceptor 7 [5]): 6.95
CCc1ccc(CCNC(=O)c2cc3c(NC(=O)COc4ccc(Cl)cc4)cccc3n(Cc3ccc(OC)cc3)c2=O)cc1 |  | inactive | 
COc1ccc(Cn2c(=O)c(C(=O)NCCc3ccc(C)cc3)cc3c(N)cccc32)cc1 |  | 4% | 
COC(=O)c1cc2c(NC(=O)Cc3ccccc3)cccc2n(Cc2ccc(OC)cc2)c1=O | 24% | 43% | 
CN([C@@H](Cc1ccc(OS(=O)(=O)c2cccc3cnccc23)cc1)C(=O)N1CCN(c2ccccc2)CC1)S(=O)(=O)c1cccc2cnccc12 | 79% |  | viability at 10 µM [4]: 93%; inhibition [6]: 96%
COC(=O)c1cc2c(NC(=O)C34CC5CC(CC(C5)C3)C4)cccc2n(Cc2ccccc2)c1=O |  | inactive | 
COc1ccc(CCNC(=O)c2cc3c(NC(=O)COc4ccc(Cl)cc4)cccc3n(Cc3ccc(OC)cc3)c2=O)cc1 |  | inactive | 
COc1ccc(Cn2c(=O)c(C(=O)NCCCc3ccccc3)cc3c(N)cccc32)cc1 |  | inactive | 

Structure (SMILES) | inhibition [2] | inhibition [3] | other results
COC(=O)c1cc2c(NC(=O)CCc3ccccc3)cccc2n(Cc2ccc(OC)cc2)c1=O | 36% | 56% | 
COc1ccc(Cn2c(=O)c(C(=O)NCCc3ccc4c(c3)OCO4)cc3c(NC(=O)Cc4ccc(Cl)cc4)cccc32)cc1 |  | inactive | 
COC(=O)c1cc2c(NC(=O)C34CC5CC(CC(C5)C3)C4)cccc2n(Cc2ccc(OC(F)(F)F)cc2)c1=O | 48% | 68% | 
COC(=O)c1cc2c(N)cccc2n(Cc2ccc(OC)cc2)c1=O |  | inactive | 
O=C(CC12CC3CC(CC(C3)C1)C2)Nc1cccc2nc(-c3ccc(Cl)cc3)ccc12 | 89% | 90% | pIC50 (P2X purinoceptor 7 [1]): 6.91; viability at 10 µM [4]: 98%; pIC50 (P2X purinoceptor 7 [5]): 6.75
O=C(CC1CCCCC1)Nc1cccc2nc(Cl)ccc12 | 90% | 95% | pIC50 (P2X purinoceptor 7 [1]): 6.41; viability at 10 µM [4]: 92%; pIC50 (P2X purinoceptor 7 [5]): 6.47
COc1ccc(Cn2c(=O)ccc3c(NC(=O)C45CC6CC(CC(C6)C4)C5)cccc32)cc1 | 29% | 43% | 
CNC(=O)c1cc2c(NC(=O)C34CC5CC(CC(C5)C3)C4)cccc2n(Cc2ccc(OC)cc2)c1=O | 6% | 42% | 
COc1ccc(Cn2c(=O)c(C(=O)NCCc3ccc(C)cc3)cc3c(NC(=O)Cc4ccccc4)cccc32)cc1 |  | 13% | 
COC(=O)c1cc2c(NC(=O)CCC3CCCC3)cccc2n(Cc2ccc(OC)cc2)c1=O | 15% | 45% | 
CCc1ccc(Cn2c(=O)c(C(=O)OC)cc3c(NC(=O)C45CC6CC(CC(C6)C4)C5)cccc32)cc1 | 28% | 38% | 
COc1ccc(Cn2c(=O)c(C(=O)O)cc3c(N)cccc32)cc1 |  | inactive | 
COC(=O)c1cc2c(NC(=O)C34CC5CC(CC(C5)C3)C4)cccc2n(Cc2ccc(C#N)cc2)c1=O |  | inactive | 
COc1ccc(Cn2c(=O)c(C(=O)NCCc3ccc(C)cc3)cc3c(NC(=O)COc4cccc(Cl)c4)cccc32)cc1 |  | inactive | 
O=C(Nc1cccc2nc(Cl)ccc12)C12CC3CC(CC(C3)C1)C2 | 11% | 51% | 
CCc1ccc(CCNC(=O)c2cc3c(N)cccc3n(Cc3ccc(OC)cc3)c2=O)cc1 |  | inactive | 
COc1ccc(Cn2c(=O)c(C(=O)NCCc3ccc(C)cc3)cc3c(NC(=O)CCc4ccccc4)cccc32)cc1 |  | inactive | 
COc1ccc(Cn2c(=O)c(C(=O)NCCc3ccccc3)cc3c(NC(=O)CCc4ccccc4)cccc32)cc1 |  | inactive | 
COC(=O)c1cc2c(NC(=O)C34CC5CC(CC(C5)C3)C4)cccc2nc1Cl | inactive | 21% | 
COC(=O)c1cc2c(NC(=O)CCC3CCCCC3)cccc2n(Cc2ccc(OC)cc2)c1=O | 20% | 57% | 

Structure (SMILES) | inhibition [2] | inhibition [3] | other results
COc1ccc(Cn2c(=O)c(C(=O)NCCc3ccc(O)c(OC)c3)cc3c(N)cccc32)cc1 |  | 5% | 
COc1ccc(Cn2c(=O)c(C(=O)NCCc3ccc(C)cc3)cc3c(NC(=O)CCC4CCCC4)cccc32)cc1 |  | inactive | 
CCCC(=O)Nc1cccc2c1cc(C(=O)NCCc1ccccc1)c(=O)n2Cc1ccc(OC)cc1 |  | inactive | 
COC(=O)c1cc2c(NC(=O)C34CC5CC(CC(C5)C3)C4)cccc2n(Cc2ccc(Cl)cc2)c1=O | 78% | 88% | pIC50 (P2X purinoceptor 7 [1]): 6.14
COc1ccc(Cn2c(=O)c(C(=O)NCCc3ccc(Cl)cc3)cc3c(NC(=O)COc4cccc(Cl)c4)cccc32)cc1 |  | inactive | 
COc1ccc(Cn2c(=O)c(C(=O)NCCc3ccccc3)cc3c(N)cccc32)cc1 |  | inactive | 
O=C(CC12CC3CC(CC(C3)C1)C2)Nc1cccc2nc(-c3ccccc3)ccc12 | 78% | 86% | pIC50 (P2X purinoceptor 7 [1]): 6.35; viability at 10 µM [4]: 98%; pIC50 (P2X purinoceptor 7 [5]): 6.36
COc1ccc(Cn2c(=O)c(C(=O)NCCc3ccc(C)cc3)cc3c(NC(=O)COc4ccc(Cl)cc4)cccc32)cc1 |  | inactive | 
COC(=O)c1cc2c(NC(=O)C34CC5CC(CC(C5)C3)C4)cccc2n(Cc2ccc(Br)cc2)c1=O | 65% | 80% | pIC50 (P2X purinoceptor 7 [1]): 6.09
O=C(CC12CC3CC(CC(C3)C1)C2)Nc1cccc2nc(-c3ccccc3O)ccc12 | 41% | 69% | 
COC(=O)c1cc2c(NC(=O)c3ccccc3)cccc2n(Cc2ccc(OC)cc2)c1=O |  | inactive | 
COc1ccc(Cn2c(=O)c(C(=O)NCCc3ccc(Cl)cc3)cc3c(N)cccc32)cc1 |  | inactive | 
COc1ccc(Cn2c(=O)c(C(=O)OC(C)C)cc3c(NC(=O)C45CC6CC(CC(C6)C4)C5)cccc32)cc1 | 47% | 77% | 
COc1ccc(Cn2c(=O)c(C(=O)NCCc3ccc4c(c3)OCO4)cc3c(N)cccc32)cc1 |  | inactive | 
COC(=O)c1cc2c(NC(=O)CC3CCCCC3)cccc2n(Cc2ccc(OC)cc2)c1=O | 63% | 86% | pIC50 (P2X purinoceptor 7 [1]): 6.06
COc1ccc(CCNC(=O)c2cc3c(NC(=O)CCc4ccccc4)cccc3n(Cc3ccc(OC)cc3)c2=O)cc1 |  | 7% | 
COc1ccc(Cn2c(=O)c(C(=O)NCCCc3ccccc3)cc3c(NC(=O)Cc4ccccc4)cccc32)cc1 |  | inactive | 
COC(=O)c1cc2c(NC(=O)C34CC5CC(CC(C5)C3)C4)cccc2n(Cc2cccc(OC)c2)c1=O | 35% | 55% | 
COc1ccc(Cn2c(=O)c(C(=O)N(C)C)cc3c(NC(=O)C45CC6CC(CC(C6)C4)C5)cccc32)cc1 | 14% | 54% | 
